How the values were obtained:
[1] = target: Delta-type opioid receptor (Homo sapiens, UniProt P41143); assay type: cell membranes, HEK293, Membrane; settings: hek293; further: in other assays of this panel Not Active means under 50% inhibition at 10 µM
Carbonic anhydrase 2 = Carbonic anhydrase 2 (Homo sapiens, UniProt P00918); assay: DRUGMATRIX: Carbonic Anhydrase II enzyme inhibition (substrate: 4-Nitrophenyl acetate (4-NPA)); assay type: tissue-based, Erythrocyte; settings: erythrocyte; Not Active = under 50% inhibition at 10 µM
Glucocorticoid receptor = target: T1, Glucocorticoid receptor (Homo sapiens, UniProt P04150); settings: hela s3; further: in other assays of this panel Not Active means under 50% inhibition at 10 µM
T1 sequence (P04150 whole entry): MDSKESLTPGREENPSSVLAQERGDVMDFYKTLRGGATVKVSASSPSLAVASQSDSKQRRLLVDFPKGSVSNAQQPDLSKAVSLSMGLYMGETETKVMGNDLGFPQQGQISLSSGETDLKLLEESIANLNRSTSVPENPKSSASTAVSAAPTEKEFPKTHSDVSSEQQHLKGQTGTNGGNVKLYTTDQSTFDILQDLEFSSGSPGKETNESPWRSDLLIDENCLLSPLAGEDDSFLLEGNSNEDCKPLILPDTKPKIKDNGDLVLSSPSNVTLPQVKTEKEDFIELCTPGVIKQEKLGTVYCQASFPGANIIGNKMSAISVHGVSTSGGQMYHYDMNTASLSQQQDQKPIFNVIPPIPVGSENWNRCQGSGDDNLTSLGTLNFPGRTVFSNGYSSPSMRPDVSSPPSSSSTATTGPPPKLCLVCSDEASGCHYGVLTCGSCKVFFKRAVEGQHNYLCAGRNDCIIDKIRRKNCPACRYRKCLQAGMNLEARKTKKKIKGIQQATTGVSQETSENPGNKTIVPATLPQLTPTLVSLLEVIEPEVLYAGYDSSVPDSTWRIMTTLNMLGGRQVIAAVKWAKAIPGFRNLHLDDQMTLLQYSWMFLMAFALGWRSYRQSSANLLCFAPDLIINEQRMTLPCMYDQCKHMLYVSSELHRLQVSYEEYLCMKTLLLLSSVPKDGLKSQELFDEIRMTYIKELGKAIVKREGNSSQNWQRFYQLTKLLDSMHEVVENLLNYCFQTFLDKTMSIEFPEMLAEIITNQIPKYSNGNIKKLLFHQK

Substance-K receptor = target: T2, Substance-K receptor (Homo sapiens, UniProt P21452); assay type: cell membranes, CHO, Membrane; settings: cho; further: in other assays of this panel Not Active means under 50% inhibition at 10 µM
T2 sequence (P21452 whole entry): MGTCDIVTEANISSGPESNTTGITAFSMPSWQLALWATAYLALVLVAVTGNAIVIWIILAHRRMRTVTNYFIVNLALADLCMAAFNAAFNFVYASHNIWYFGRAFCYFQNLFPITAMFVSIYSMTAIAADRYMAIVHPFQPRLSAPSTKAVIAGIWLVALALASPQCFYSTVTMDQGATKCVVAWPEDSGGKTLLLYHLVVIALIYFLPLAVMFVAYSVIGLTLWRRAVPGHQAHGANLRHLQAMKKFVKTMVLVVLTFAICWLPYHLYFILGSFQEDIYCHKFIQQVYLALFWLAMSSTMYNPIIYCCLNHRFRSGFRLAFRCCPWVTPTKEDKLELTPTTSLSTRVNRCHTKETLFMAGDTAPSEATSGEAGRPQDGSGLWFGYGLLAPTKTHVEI

Endothelin-1 receptor = target: T3, Endothelin-1 receptor (Homo sapiens, UniProt P25101); assay type: cell membranes, Membrane; settings: cho-k1; further: in other assays of this panel Not Active means under 50% inhibition at 10 µM
T3 sequence (P25101 whole entry): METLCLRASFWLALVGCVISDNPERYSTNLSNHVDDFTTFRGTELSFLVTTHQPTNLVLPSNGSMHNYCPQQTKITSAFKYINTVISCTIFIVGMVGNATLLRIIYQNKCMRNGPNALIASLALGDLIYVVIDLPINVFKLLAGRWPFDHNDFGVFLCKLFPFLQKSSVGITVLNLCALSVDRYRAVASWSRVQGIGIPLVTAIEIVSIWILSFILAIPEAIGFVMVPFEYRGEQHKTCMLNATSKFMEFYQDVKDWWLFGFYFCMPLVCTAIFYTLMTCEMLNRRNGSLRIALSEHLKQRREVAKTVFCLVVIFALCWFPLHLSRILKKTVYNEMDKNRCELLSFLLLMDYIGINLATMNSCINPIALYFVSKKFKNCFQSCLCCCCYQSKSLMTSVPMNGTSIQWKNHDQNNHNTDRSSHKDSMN

Leukotriene C4 synthase = target: T4, Leukotriene C4 synthase (Cavia porcellus, UniProt A6XA80); assay type: tissue-based, Lung
T4 sequence (A6XA80 whole entry): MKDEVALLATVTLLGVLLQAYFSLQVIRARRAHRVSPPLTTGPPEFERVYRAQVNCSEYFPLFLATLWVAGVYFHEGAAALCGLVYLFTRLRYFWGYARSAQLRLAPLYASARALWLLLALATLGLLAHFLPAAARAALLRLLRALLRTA

[2] = target: Tyrosine-protein kinase Lck (Homo sapiens, UniProt P06239); assay: DRUGMATRIX: Protein Tyrosine Kinase, LCK enzyme inhibition (substrate: Poly(Glu:Tyr)); assay type: cell-based, Insect cells; settings: insect cells; Not Active = under 50% inhibition at 10 µM

Measured: IC50

Sequence of Tyrosine-protein kinase Lck (P06239 whole entry): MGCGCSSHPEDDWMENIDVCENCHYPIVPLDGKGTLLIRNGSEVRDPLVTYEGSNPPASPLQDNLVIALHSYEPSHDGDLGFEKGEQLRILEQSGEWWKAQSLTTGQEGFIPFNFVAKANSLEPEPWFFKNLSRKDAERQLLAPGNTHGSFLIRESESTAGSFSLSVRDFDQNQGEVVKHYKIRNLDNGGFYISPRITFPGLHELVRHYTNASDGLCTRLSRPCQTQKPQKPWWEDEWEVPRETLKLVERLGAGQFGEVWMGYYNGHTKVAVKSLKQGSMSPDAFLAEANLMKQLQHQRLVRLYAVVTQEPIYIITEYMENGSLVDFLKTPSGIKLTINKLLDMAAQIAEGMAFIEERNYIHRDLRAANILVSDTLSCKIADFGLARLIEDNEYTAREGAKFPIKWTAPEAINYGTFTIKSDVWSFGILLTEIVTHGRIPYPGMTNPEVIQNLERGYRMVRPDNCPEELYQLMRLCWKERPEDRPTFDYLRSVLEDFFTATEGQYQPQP
Sequence of Delta-type opioid receptor (P41143 whole entry): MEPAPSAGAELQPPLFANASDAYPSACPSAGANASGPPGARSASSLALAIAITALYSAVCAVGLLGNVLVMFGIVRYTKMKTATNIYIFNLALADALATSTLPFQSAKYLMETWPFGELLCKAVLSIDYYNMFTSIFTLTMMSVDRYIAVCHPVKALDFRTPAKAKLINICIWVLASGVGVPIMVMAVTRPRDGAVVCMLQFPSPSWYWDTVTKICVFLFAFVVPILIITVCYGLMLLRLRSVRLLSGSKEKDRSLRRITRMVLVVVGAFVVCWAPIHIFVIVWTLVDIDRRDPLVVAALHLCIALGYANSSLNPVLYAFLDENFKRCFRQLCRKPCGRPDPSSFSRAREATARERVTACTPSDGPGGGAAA

CC(C)(C(=O)O)c1ccc(C(O)CCCN2CCC(C(O)(c3ccccc3)c3ccccc3)CC2)cc1 (stereo not drawn) [FEXOFENADINE]
Not Active: all assays above

CN1CCN(c2c(F)cc3c(=O)c(C(=O)O)cn(CCF)c3c2F)CC1 [FLEROXACIN]
Not Active: all assays above

O=c1[nH]c(=O)n([C@H]2C[C@H](O)[C@@H](CO)O2)cc1F [FLOXURIDINE]
Not Active: all assays above

COC(=O)Nc1nc2cc(C(=O)c3ccc(F)cc3)ccc2[nH]1 [FLUBENDAZOLE]
Not Active: all assays above

O=C(O)P(=O)(O)O [FOSCARNET]
Not Active: all assays above

O=c1c(-c2ccc(O)cc2)coc2cc(O)cc(O)c12 [GENISTEIN]
Not Active: all assays above

CCC1=C(C)CN(C(=O)NCCc2ccc(S(=O)(=O)NC(=O)N[C@H]3CC[C@H](C)CC3)cc2)C1=O [GLIMEPIRIDE]
Not Active: all assays above

Nc1cc(-c2ccncc2)c[nH]c1=O [INAMRINONE]
Not Active: all assays above

CN1CCC(=C2c3ccccc3CC(=O)c3sccc32)CC1 [KETOTIFEN]
Not Active: all assays above

N[C@@H](Cn1ccc(=O)c(O)c1)C(=O)O [L-MIMOSINE]
Not Active: all assays above

C[N+](C)(C)C[C@H](O)CC(=O)[O-] [LEVOCARNITINE]
Not Active: all assays above

CCn1cc(C(=O)O)c(=O)c2cc(F)c(N3CCNC(C)C3)c(F)c21 (stereo not drawn) [LOMEFLOXACIN]
Not Active: all assays above

CN1CCCC(CN2c3ccccc3Sc3ccccc32)C1 (stereo not drawn) [MEPAZINE]
Not Active: all assays above

Cc1cccc(C)c1NC(=O)C1CCCCN1C (stereo not drawn) [MEPIVACAINE]
Not Active: all assays above

CN(C)C(=N)NC(=N)N [METFORMIN]
Not Active: all assays above

CC(C)(C)NCC(O)COc1cccc2c1CC(O)C(O)C2 (stereo not drawn) [NADOLOL]
Not Active: all assays above

C[C@]12CC[C@H]3[C@@H](CCC4=CC(=O)CC[C@@H]43)[C@@H]1CC[C@@H]2O [NANDROLONE]
Not Active: all assays above

C[C@@H]1C/C=C/C=C/C=C/C=C/[C@H](O[C@@H]2O[C@H](C)[C@@H](O)[C@H](N)[C@@H]2O)C[C@@H]2O[C@](O)(C[C@@H](O)C[C@H]3O[C@@H]3/C=C/C(=O)O1)C[C@H](O)[C@H]2C(=O)O [NATAMYCIN]
Not Active: all assays above

CN(C)C(=O)Oc1cccc([N+](C)(C)C)c1.[Br-] [NEOSTIGMINE BROMIDE]
Not Active: all assays above
